In US11419918B2, “Treatment of biliary cirrhosis based on oxyntomodulin analogue GLP-1R/GCGR dual-target agonist peptide” (Shenzhen Turier Biotech Co., Ltd., priority 2017, dated 2022):
Numbered stars: 1 amine (or outer) side, 2 acyl side, 3 side chain; on linkers, the order of the positions; unused ones are H or OH. Square brackets hold non-standard residues; d marks the D form. Primed or numbered codes have the meaning given here. Side chains are listed from the residue outwards. Ends that are not written are not given here. * marks the point of attachment. C18 diacid = O=C(O)CCCCCCCCCCCCCCCCC(=O)*; C16 diacid = O=C(O)CCCCCCCCCCCCCCC(=O)*; γGlu = O=C(O)[C@H](CCC(=O)[*:2])N[*:1]; Stearoyl = CCCCCCCCCCCCCCCCCC(=O)*; Palmitoyl = CCCCCCCCCCCCCCCC(=O)*; Nle = CCCC[C@H](N)C(=O)O; PEG2′ = not defined here; Aib = CC(C)(N)C(=O)O

Test system: human hepatic stellate cells (LX-2)
Assay: In vitro inhibition of hepatic fibrosis: expression of activation marker α-SMA in LX-2 cells (Western Blot, β-actin internal reference)
Format: cell-based
Conditions: 10.0 μM, 48 hours, negative control (PBS) = 100%
Protocol: Hepatic stellate cell strain LX-2 was selected to study and observe the effect of different doses of test substances on the expression of LX-2 cell activation marker α-SMA. Hepatic stellate cell LX-2 was laid on 35 mm cell culture plate, cultured with DMEM (high glucose)+10% FBS+1% double-antibody culture medium (Thermo Fisher), placed overnight when the cells grew to 70% convergence at 37° C. and under the condition of 5% CO2, and treated with the above GLP-1R/GCGR dual target agonist polypeptides 1-48 (dissolved in PBS) for 48 hours the next day morning to extract cell protein, carry out Western Blot, and take β-actin as internal reference and analyze the expression quantities of α-SMA and β-actin by a gray level of Image J 1.50i. PBS with the same volume as that in experimental group was added in negative control. […] The integrating gray level of α-SMA/β-actin in the negative control group was 100% to analyze the in vitro inhibition activity of hepatic fibrosis of tested polypeptide.

Row | Substance | Relative expression of α-SMA (α-SMA/β-actin, %)
1 | His-(D-Ser)-Gln-Gly-Thr-Phe-Thr-Ser-Asp-Lys(PEG2-PEG2-CO(CH2)14CH3)-Ser-Lys-Tyr-Leu-Asp-Aib-Arg-Arg-Ala-Gln-Asp-Phe-Val-Gln-Trp-Leu-Nle-Asn-Thr-Gly-Gly-Pro-Ser-Ser-Gly-Ala-Pro-Pro-Pro-Ser-NH2 (H[dS]QGTFTSDK([PEG2′-PEG2′-Palmitoyl])SKYLD[Aib]RRAQDFVQWL[Nle]NTGGPSSGAPPPS-NH2) [Compound 45] | 32.22%
2 | His-(D-Ser)-Gln-Gly-Thr-Phe-Thr-Ser-Asp-Tyr-Ser-Lys-Tyr-Leu-Asp-Ser-Lys(PEG2-PEG2-γGlu-CO(CH2)16CO2H)-Ala-Ala-His-Asp-Phe-Val-Glu-Trp-Leu-Leu-Asn-Gly-Gly-Pro-Ser-Ser-Gly-Ala-Pro-Pro-Pro-Ser-NH2 (H[dS]QGTFTSDYSKYLDSK([PEG2′-PEG2′-γGlu-C18 diacid])AAHDFVEWLLNGGPSSGAPPPS-NH2) [Compound 21] | 37.66%
3 | His-(D-Ser)-Gln-Gly-Thr-Phe-Thr-Ser-Asp-Tyr-Ser-Lys-Tyr-Leu-Asp-Lys(PEG2-PEG2-CO(CH2)16CO2H)-Arg-Arg-Ala-Gln-Asp-Phe-Val-Gln-Trp-Leu-Nle-Asn-Thr-Gly-Gly-Pro-Ser-Ser-Gly-Ala-Pro-Pro-Pro-Ser-NH2 (H[dS]QGTFTSDYSKYLDK([PEG2′-PEG2′-C18 diacid])RRAQDFVQWL[Nle]NTGGPSSGAPPPS-NH2) [Compound 41] | 42.10%
4 | His-(D-Ser)-Gln-Gly-Thr-Phe-Thr-Ser-Asp-Tyr-Ser-Lys-Tyr-Leu-Asp-Ser-Lys(PEG2-PEG2-γGlu-CO(CH2)16CH3)-Ala-Ala-His-Asp-Phe-Val-Glu-Trp-Leu-Leu-Asn-Gly-Gly-Pro-Ser-Ser-Gly-Aln-Pro-Pro-Pro-Ser-NH2 (H[dS]QGTFTSDYSKYLDSK([PEG2′-PEG2′-γGlu-Stearoyl])AAHDFVEWLLNGGPSSGAPPPS-NH2; also: position 35: name writes Aln, letters give A) [Compound 22] | 40.56%
5 | His-(D-Ser)-Gln-Gly-Thr-Phe-Thr-Ser-Asp-Tyr-Ser-Lys-Tyr-Leu-Asp-Aib-Lys(PEG2-PEG2-γGlu-CO(CH2)14CH3)-Arg-Ala-Gln-Asp-Phe-Val-Gln-Trp-Leu-Met-Asn-Thr-Gly-Gly-Pro-Ser-Ser-Gly-Ala-Pro-Pro-Pro-Ser-NH2 (H[dS]QGTFTSDYSKYLD[Aib]K([PEG2′-PEG2′-γGlu-Palmitoyl])RAQDFVQWLMNTGGPSSGAPPPS-NH2) [Compound 33] | 35.45%
6 | His-Aib-Gln-Gly-Thr-Phe-Thr-Ser-Asp-Lys(PEG2-PEG2-γGlu-CO(CH2)14CO2H)-Ser-Lys-Tyr-Leu-Asp-Glu-Arg-Arg-Ala-Gln-Asp-Phe-Val-Gln-Trp-Leu-Leu-Asp-Gly-Gly-Pro-Ser-Ser-Gly-Ala-Pro-Pro-Pro-Ser-NH2 (H[Aib]QGTFTSDK([PEG2′-PEG2′-γGlu-C16 diacid])SKYLDERRAQDFVQWLLDGGPSSGAPPPS-NH2) [Compound 13] | 37.93%
7 | His-(D-Ser)-Gln-Gly-Thr-Phe-Thr-Ser-Asp-Tyr-Ser-Lys-Tyr-Leu-Asp-Glu-Lys-Ala-Ala-Lys(PEG2-PEG2-γGlu-CO(CH2)14CH3)-Glu-Phe-Ile-Glu-Trp-Leu-Leu-Asn-Gly-Gly-Pro-Ser-Ser-Gly-Ala-Pro-Pro-Pro-Ser-NH2 (H[dS]QGTFTSDYSKYLDEKAAK([PEG2′-PEG2′-γGlu-Palmitoyl])EFIEWLLNGGPSSGAPPPS-NH2) [Compound 29] | 49.36%
8 | His-(D-Ser)-Gln-Gly-Thr-Phe-Thr-Ser-Asp-Tyr-Ser-Lys-Tyr-Leu-Asp-Lys(PEG2-PEG2-γGlu-CO(CH2)16CO2H)-Arg-Arg-Ala-Gln-Asp-Phe-Val-Gln-Trp-Leu-Met-Asn-Thr-Gly-Gly-Pro-Ser-Ser-Gly-Ala-Pro-Pro-Pro-Ser-NH2 (H[dS]QGTFTSDYSKYLDK([PEG2′-PEG2′-γGlu-C18 diacid])RRAQDFVQWLMNTGGPSSGAPPPS-NH2) [Compound 34] | 38.18%
9 | His-(D-Ser)-Gln-Gly-Thr-Phe-Thr-Ser-Asp-Lys(PEG)-PEG2-γGlu-CO(CH2)14CH3)-Ser-Lys-Tyr-Leu-Asp-Aib-Arg-Arg-Ala-Gln-Asp-Phe-Val-Gln-Trp-Leu-Met-Asn-Thr-Gly-Gly-Pro-Ser-Ser-Gly-Ala-Pro-Pro-Pro-Ser-NH2 (H[dS]QGTFTSDKSKYLD[Aib]RRAQDFVQWLMNTGGPSSGAPPPS-NH2; not fully specified (residue 10); printed as His-(D-Ser)-Gln-Gly-Thr-Phe-Thr-Ser-Asp-Lys(PEG2-PEG2-γGln-CO(CH2)14CH3)-Ser-Lys-Tyr-Leu-Asp-Aib-Arg-Arg-Ala-Gln-Asp-Phe-Val-Gln-Trp-Leu-Met-Asn-Thr-Gly-Gly-Pro-Ser-Ser-Gly-Ala-Pro-Pro-Pro-Ser-NH2; also: first PEG unit on Lys10 of unstated size) [Compound 4] | 33.50%
10 | His-(D-Ser)-Gln-Gly-Thr-Phe-Thr-Ser-Asp-Lys(PEG2-PEG2-γGlu-CO(CH2)16CO2H)-Ser-Lys-Tyr-Leu-Asp-Aib-Arg-Arg-Ala-Gln-Asp-Phe-Val-Gln-Trp-Leu-Nle-Asn-Thr-Gly-Gly-Pro-Ser-Ser-Gly-Ala-Pro-Pro-Pro-Ser-NH2 (H[dS]QGTFTSDK([PEG2′-PEG2′-γGlu-C18 diacid])SKYLD[Aib]RRAQDFVQWL[Nle]NTGGPSSGAPPPS-NH2) [Compound 48] | 43.25%
11 | His-(D-Ser)-Gln-Gly-Thr-Phe-Thr-Ser-Asp-Tyr-Ser-Lys-Tyr-Leu-Asp-Glu-Lys-Ala-Ala-Lys(PEG2-PEG2-γGlu-CO(CH2)14CO2H)-Glu-Phe-Ile-Glu-Trp-Leu-Leu-Asn-Gly-Gly-Pro-Ser-Ser-Gly-Ala-Pro-Pro-Pro-Ser-NH2 (H[dS]QGTFTSDYSKYLDEKAAK([PEG2′-PEG2′-γGlu-C16 diacid])EFIEWLLNGGPSSGAPPPS-NH2) [Compound 27] | 32.34%
12 | His-(D-Ser)-Gln-Gly-Thr-Phe-Thr-Ser-Asp-Tyr-Ser-Lys-Tyr-Leu-Asp-Lys(PEG2-PEG2-γGlu-CO(CH2)16CH3)-Arg-Arg-Ala-Gln-Asp-Phe-Val-Gln-Trp-Leu-Met-Asn-Thr-Gly-Gly-Pro-Ser-Ser-Gly-Ala-Pro-Pro-Pro-Ser-NH2 (H[dS]QGTFTSDYSKYLDK([PEG2′-PEG2′-γGlu-Stearoyl])RRAQDFVQWLMNTGGPSSGAPPPS-NH2) [Compound 36] | 42.49%
13 | His-(D-Ser)-Gln-Gly-Thr-Phe-Thr-Ser-Asp-Tyr-Ser-Lys-Tyr-Leu-Asp-Glu-Lys-Ala-Ala-Lys(PEG2-PEG2-γGlu-CO(CH2)16CH3)-Glu-Phe-Ile-Glu-Trp-Leu-Leu-Arg-Ala-NH2 (H[dS]QGTFTSDYSKYLDEKAAK([PEG2′-PEG2′-γGlu-Stearoyl])EFIEWLLRA-NH2) [Compound 24] | 32.42%
14 | His-Aib-Gln-Gly-Thr-Phe-Thr-Ser-Asp-Lys(PEG2-PEG2-γGlu-CO(CH2)14CH3)-Ser-Lys-Tyr-Leu-Asp-Aib-Arg-Arg-Ala-Gln-Asp-Phe-Val-Gln-Trp-Leu-Leu-Asp-Gly-Gly-Pro-Ser-Ser-Gly-Ala-Pro-Pro-Pro-Ser-NH2 (H[Aib]QGTFTSDK([PEG2′-PEG2′-γGlu-Palmitoyl])SKYLD[Aib]RRAQDFVQWLLDGGPSSGAPPPS-NH2) [Compound 8] | 38.25%
15 | His-(D-Ser)-Gln-Gly-Thr-Phe-Thr-Ser-Asp-Lys(PEG2-PEG2-CO(CH2)14CH3)-Ser-Lys-Tyr-Leu-Asp-Aib-Arg-Arg-Ala-Gln-Asp-Phe-Val-Gln-Trp-Leu-Met-Asn-Thr-Gly-Gly-Pro-Ser-Ser-Gly-Ala-Pro-Pro-Pro-Ser-NH2 (H[dS]QGTFTSDK([PEG2′-PEG2′-Palmitoyl])SKYLD[Aib]RRAQDFVQWLMNTGGPSSGAPPPS-NH2) [Compound 31] | 36.89%
16 | His-(D-Ser)-Gln-Gly-Thr-Phe-Thr-Ser-Asp-Lys(PEG2-PEG2-γGlu-CO(CH2)14CH3)-Ser-Lys-Tyr-Leu-Asp-Aib-Arg-Arg-Ala-Gln-Asp-Phe-Val-Gln-Trp-Leu-Leu-Asn-Thr-Gly-Gly-Pro-Ser-Ser-Gly-Ala-Pro-Pro-Pro-Ser-NH2 (H[dS]QGTFTSDK([PEG2′-PEG2′-γGlu-Palmitoyl])SKYLD[Aib]RRAQDFVQWLLNTGGPSSGAPPPS-NH2) [Compound 43] | 42.34%
